The nature of this data set: in vitro. The note with it: human, hela cells, % viability.

For `Cn1ccnc1C(O)C1CCN(C(=O)NCCc2cccc(F)c2)CC1` (centres unmarked) [CBK304657], the viability at 28.5 h, 10 µM came to 80.5%.

Take `COc1ccccc1-c1cc2nc(C)cc(NCC3CCCO3)n2n1` (centres unmarked) [CBK304277]: the viability at 28.5 h, 10 µM worked out at 96.5%.

For `Cc1noc(NS(=O)(=O)c2ccc(NC(=O)COc3cccc(Br)c3)cc2)c1C` [CBK264086], the viability at 28.5 h, 10 µM worked out at 104%.

Regarding `O=C(Cc1csc(NS(=O)(=O)c2ccc(-c3cccc([N+](=O)[O-])c3)cc2)n1)N1CCOCC1` [CBK200032], the viability at 28.5 h, 10 µM stood at 110%.

In the case of `Nc1ncc(-c2cc(C(F)(F)F)cc(C(F)(F)F)c2)nc1NCCCO` [CBK063546], the viability at 28.5 h, 10 µM came out at 105%.

As for `CCN(CC)S(=O)(=O)c1ccc(C(=O)NCc2ccc(OC)cc2)cc1` [CBK305844], the viability at 28.5 h, 10 µM is 71.6%.

For the molecule `O=S(=O)(c1ccc(Cl)s1)N1CCN(Cc2ccc3c(c2)OCO3)CC1` [CBK270324], the viability at 28.5 h, 10 µM came out at 89.5%.

In the case of `Cc1nn(C)c(N2CCNCC2)c1NC(=O)/C=C/c1cccnc1` [CBK050354T], the viability at 28.5 h, 10 µM is 95.4%.

As to `Cc1cccc(CNC(Cc2ccsc2)c2nccs2)n1` (centres unmarked) [CBK282697], where the note is “bulk resorufin, single well”, the viability at 28.5 h, 10 µM turned out to be 106%.

In the case of `COCCn1nnnc1C(c1cc2c(C)ccc(C)c2[nH]c1=O)N1CCN(C(=O)c2ccco2)CC1` (centres unmarked) [CBK111563], the viability at 28.5 h, 10 µM was found to be 98.6%.

As for `CN1CCN(Cc2c(O)ccc3occ(C(=O)c4ccccc4)c23)CC1` [CBK111438], the viability at 28.5 h, 10 µM came out at 98.2%.

Turning to `Cn1c(=O)n(C)c2cc(CNCc3ccccn3)ccc21` [CBK288118], the viability at 28.5 h, 10 µM turned out to be 95.4%.

For `C=CCOC(=O)C1=C(C)N=C2SCCC(=O)N2C1c1ccc(SC)cc1` (centres unmarked) [CBK073405], the viability at 28.5 h, 10 µM was 93.5%.

For the molecule `Cc1nc2ccc(NC(=O)CC3CCN(C(=O)CC4CCCCC4)CC3)cc2[nH]1` [CBK285967], the viability at 28.5 h, 10 µM is 94.6%.

As for `O=C(CCSc1ccc(Cl)cc1)Nc1ccc(S(=O)(=O)N2CCOCC2)cc1` [CBK264133], the viability at 28.5 h, 10 µM stood at 95.5%.

With `CC(=O)c1ccc(-c2nccnc2NCc2cccnc2)s1` [CBK037050], the viability at 28.5 h, 10 µM was determined as 99.5%.

Regarding `Cc1ccc(S(=O)(=O)Oc2c(C=C3C(=O)CC(C)(C)CC3=O)[nH]c3ccccc23)cc1` [CBK263464], the viability at 28.5 h, 10 µM came out at 94.4%.

Regarding `NC(=O)c1nc(-c2ccco2)nc2c1[nH]c(=O)n2-c1ccc(Cl)cc1` [CBK287545], the viability at 28.5 h, 10 µM amounted to 91.2%.

`Cc1noc(C)c1S(=O)(=O)NCc1cc(C)n(C)n1` [CBK062155]: the viability at 28.5 h, 10 µM is 103%.

As to `CCC(C)C(NC(=O)C1CCN(S(=O)(=O)c2ccc(OC)c(OC)c2)CC1)C(=O)O` (centres unmarked) [CBK297140], the viability at 28.5 h, 10 µM turned out to be 90.7%.

As to `CC1=C[C@@H](CNC(=O)c2cccnc2)[C@H](C(C)C)C[C@H]1CC(=O)N1CCCC1` [CBK289055], the viability at 28.5 h, 10 µM was 87.7%.

Turning to `COc1ccc(OCCNC(=O)c2ccc(-c3ccccc3C)nc2N2CCN(C(=O)c3ccco3)CC2)cc1` [CBK076207], the viability at 28.5 h, 10 µM stood at 85.6%.

For `c1cncc(COc2nccnc2N2CCN(CCN3CCOCC3)CC2)c1` [CBK083141], the viability at 28.5 h, 10 µM was 104%.

For `COc1cccc(N2CCN(CCCOc3ccc(F)cc3)CC2)n1` [CBK010355F], the viability at 28.5 h, 10 µM was 94.6%.

Turning to `COc1ccc(Cl)cc1NC(=O)CCSc1ccccc1` [CBK263969], the viability at 28.5 h, 10 µM was determined as 85%.

As to `COc1ccc(-c2csc(NC(=O)c3ccccc3-c3ccccc3C(=O)O)n2)cc1` [CBK296076], the viability at 28.5 h, 10 µM turned out to be 88.6%.

With `CCn1cc(C(=O)N[C@H](C(=O)O)C(C)C)c(=O)c2cc3c(cc21)OCO3` [CBK286786], the viability at 28.5 h, 10 µM turned out to be 110%.

As for `Cc1ccc2cc(CN(Cc3ccc4c(c3)OCO4)Cc3nnnn3Cc3ccco3)c(=O)[nH]c2c1` [CBK108949], the viability at 28.5 h, 10 µM is 93.9%.

As for `COc1ccc(OC)c(NC(=O)CC2NCCNC2=O)c1` (centres unmarked) [CBK266477], the viability at 28.5 h, 10 µM amounted to 95.9%.

As to `Cn1c(=O)c2c(nc(SCC(=O)CSc3nc4c(c(=O)n(C)c(=O)n4C)n3C)n2C)n(C)c1=O` [CBK267692], the viability at 28.5 h, 10 µM is 86.9%.

`Cc1ncoc1C(=O)N1CCC2(C/C=C/C[C@H]3COCC[C@H]3NC(=O)CNC2=O)CC1` [CBK292086]: the viability at 28.5 h, 10 µM was 89.3%.

For `Cc1cc(C)n(C(C)CC(=O)NCc2ccccc2-n2ccnc2)n1` (centres unmarked) [CBK281518], the viability at 28.5 h, 10 µM is 84.3%.

Regarding `CCN(CC)C(=O)CN(CCc1ccc(OC)c(OC)c1)C(=O)NCCN1CCOCC1` [CBK158734], the viability at 28.5 h, 10 µM is 93.1%.

In the case of `CCCCNC(=O)CCn1c(=O)[nH]c2ccccc2c1=O` [CBK287824], the viability at 28.5 h, 10 µM stood at 97%.

As to `O=C(Nc1ccccc1N1CCOCC1)c1cccc(OCc2ccccc2)c1` [CBK270011], the viability at 28.5 h, 10 µM worked out at 104%.

Turning to `Cc1cnc(CNC(=O)N2CCN(c3cc(C(F)(F)F)ccn3)CC2)cn1` [CBK162320], the viability at 28.5 h, 10 µM amounted to 107%.

Consider `COc1ccc(OC)c(-n2c(SCC(=O)N3CCC(C(=O)O)CC3)nc3ccccc3c2=O)c1` [CBK296981], for which the viability at 28.5 h, 10 µM was found to be 87.5%.

`O=S(=O)(c1ccc(-c2ccccc2)cc1)n1ccc2cc(N3CCN(Cc4ccccc4)CC3)ccc21` [CBK001388C]: the viability at 28.5 h, 10 µM was determined as 115%.

For the molecule `COc1ccc2[nH]cc(CCNC(=O)c3ccc(NC(C)=O)cc3)c2c1` [CBK269296], the viability at 28.5 h, 10 µM came to 96.6%.

Regarding `Cc1nc2c(C(=O)N3CCNC(=O)C3)cnn2c(C)c1Cc1ccccc1` [CBK162197], the viability at 28.5 h, 10 µM was determined as 90.3%.

Take `CCCOc1ccc(S(=O)(=O)NCc2ccncc2)c2ccccc12` [CBK268780]: the viability at 28.5 h, 10 µM is 83.3%.

On to `O=C(O)c1cn(C2CC2)c2cc(N3CCN(C(=S)Nc4ccc5c(c4)OCCO5)CC3)c(F)cc2c1=O` [CBK268916], for which the viability at 28.5 h, 10 µM was 90.9%.

In the case of `CC(=O)Nc1ccc(S(=O)(=O)N2CCC(N3CCOCC3)CC2)cc1` [CBK264653G], the viability at 28.5 h, 10 µM came out at 116%.

With `N#C/C(=C/c1c[nH]c2ccccc12)c1n[nH]c(N)c1C#N` [CBK262893], the viability at 28.5 h, 10 µM came to 70.4%.

Consider `COc1cc(CN2CCN(S(=O)(=O)c3ccc(Cl)cc3)CC2)cc(OC)c1OC` [CBK074499], for which the viability at 28.5 h, 10 µM stood at 91.3%.

For the molecule `Cc1ccccc1/N=C1/NC(=O)/C(=C/c2ccc([N+](=O)[O-])o2)S1` [CBK094584], the viability at 28.5 h, 10 µM is 96.6%.

In the case of `O=C1c2ccccc2S(=O)(=O)N1CC(O)Cn1c2ccc(Cl)cc2c2cc(Cl)ccc21` (centres unmarked) [CBK262327], the viability at 28.5 h, 10 µM was 101%.

On to `O=C(O)c1cn(C2CC2)c2cc(N3CCN(C(=O)Cc4ccccc4Cl)CC3)c(F)cc2c1=O` [CBK297136], for which the viability at 28.5 h, 10 µM turned out to be 90.4%.

Turning to `O=c1[nH]c(NCCCO)nc2sc3c(c12)CCCC3` [CBK025611], the viability at 28.5 h, 10 µM is 87.9%.

As for `Oc1ccc(/C=C/c2nc(-c3ccccc3O)n(-c3ccccc3)n2)cc1` [CBK265289], the viability at 28.5 h, 10 µM was determined as 74.4%.

With `COc1ccc2nc(NC(=O)c3ccc4ncsc4c3)sc2c1` [CBK287364], the viability at 28.5 h, 10 µM was 94.8%.

`S=c1cc(SCc2ccccc2Cl)nc[nH]1` [CBK288496]: the viability at 28.5 h, 10 µM was found to be 95.2%.

For the molecule `CCONC(=O)c1cc(-c2ccccc2C)nc2c1cnn2C(C)C` [CBK304048], the viability at 28.5 h, 10 µM worked out at 95.5%.

In the case of `O=C(Nc1c(F)cc(F)cc1OC1CCNCC1)c1cccnc1` [CBK050275T], the viability at 28.5 h, 10 µM came to 100%.

As for `Cc1ccc2[nH]cc(CCN)c2c1` [CBK004365], the viability at 28.5 h, 10 µM (bulk resorufin, single well) was determined as 103%.

Consider `Cn1nc(NC(=O)c2ccco2)c2c(F)cccc21` [CBK057774], for which the viability at 28.5 h, 10 µM was determined as 93.7%.

For the molecule `Cc1nc(C2(O)CCCN(C3CCCCC3)CC2)sc1COc1ccc(F)c(F)c1` (centres unmarked) [CBK286499], the viability at 28.5 h, 10 µM was determined as 86.4%.

As for `COCc1cn([C@H]2CO[C@H]3[C@@H]2OC[C@@H]3NC(=O)Nc2ccc(OC)cc2)nn1` [CBK289495], the viability at 28.5 h, 10 µM was 107%.

In the case of `Cc1c(C(=O)Nc2ccc(S(=O)(=O)N3CCCCCC3)cc2)oc2ccc(Cl)cc12` [CBK267664], the viability at 28.5 h, 10 µM is 89.2%.

Take `Cc1ncccc1C(=O)NC(Cc1cccs1)c1nccs1` (centres unmarked) [CBK285153]: the viability at 28.5 h, 10 µM came to 91.4%.

Consider `Cc1ccc(C(=O)NCCCc2ccc(Cl)cc2)c(=O)n1C` [CBK281567], for which the viability at 28.5 h, 10 µM was found to be 80.4%.

For the molecule `O=C(CSc1nnc2ccc(-c3ccccc3)nn12)Nc1ccc(F)cc1` [CBK287676], the viability at 28.5 h, 10 µM is 91.5%.

With `O=C(NCCc1ccc(Cl)cc1)C1(Cc2cccc(-c3cccnc3)c2)CCOCC1` [CBK285606], the viability at 28.5 h, 10 µM worked out at 96.7%.

Regarding `CCn1c(CC2CCN(C(=O)CCn3cc(C)cn3)CC2)nn(C)c1=O` [CBK307584], the viability at 28.5 h, 10 µM turned out to be 89.7%.

On to `NS(=O)(=O)c1ccc(/N=C/c2cccc(O)c2O)cc1` [CBK261533], for which the viability at 28.5 h, 10 µM amounted to 87.8%.

Regarding `Nc1nc2nn([C@H]3C[C@@H](O)[C@@H](CO)O3)cc2c(=O)[nH]1` [CBK201218], the viability at 28.5 h, 10 µM came out at 90.3%.

Take `O=c1c2ccccc2nc2n1CCN(Cc1cccs1)CC2` [CBK284815]: the viability at 28.5 h, 10 µM worked out at 92.3%.

For the molecule `CSc1ncnc2c1CC=N2` [CBK007532], the viability at 28.5 h, 10 µM amounted to 96.4%.

Take `COc1ccc(CN2CCC(Oc3nccnc3OCc3cc(C)on3)CC2)cc1` [CBK082953T]: the viability at 28.5 h, 10 µM turned out to be 93.7%.

For the molecule `COc1ccccc1NC(=O)Cn1nc(-c2ccc(C)cc2)ccc1=O` [CBK269974], the viability at 28.5 h, 10 µM came out at 93.1%.

As to `Cc1nc2c(c(=O)[nH]1)CN(Cc1ccc(Cl)c(Cl)c1)CC2` [CBK283949], the viability at 28.5 h, 10 µM came out at 88.7%.

In the case of `Cc1cc(CNC(=O)COc2ccc(C#N)cc2)c2ccccc2n1` [CBK270129], the viability at 28.5 h, 10 µM was found to be 87.6%.

As for `CCC1C(=O)NCCN1C(=O)Cc1cccc2cccnc12` (centres unmarked) [CBK281728], the viability at 28.5 h, 10 µM came to 104%.

As for `O=C(O)CCC(=O)N1N=C(c2c(-c3ccccc3)c3cc(Br)ccc3[nH]c2=O)CC1c1ccc([N+](=O)[O-])cc1` (centres unmarked) [CBK267543], the viability at 28.5 h, 10 µM was found to be 104%.

On to `O=C(c1ccc2c(c1)CCCO2)N(Cc1ccccn1)CC1CCCO1` (centres unmarked) [CBK307488], for which the viability at 28.5 h, 10 µM came out at 84.9%.

Turning to `c1coc(CNc2c(-c3ccco3)nc3cnccn23)c1` [CBK283496], the viability at 28.5 h, 10 µM was found to be 103%.

In the case of `CC(C)(C)C1=CC2=NC3(CCCCC3)[C@@H]3C[C@@H](O)[C@@H](O)[C@@H]3N2O1` [CBK303235], the viability at 28.5 h, 10 µM worked out at 111%.

The record behind these values is article PMC12040169 (PLOS Biology, 2025).
